Data taken from ChEMBL document CHEMBL4411289, “Antinociceptive Potential of Zinnia grandiflora” (2019).
The source made the active and inactive calls. The rule behind the calls is not given here.

Legend:
[1] = system: Mus musculus; experiment: Antinociceptive activity in ICR mouse assessed as reduction in licking time during phase 1 (acute phase) at 3.16 to 31.6 mg/kg, po dosed 30 mins before formalin injection and by formalin test; type: functional, organism-based
[2] = system: Mus musculus; experiment: Antinociceptive activity in ICR mouse assessed as reduction in licking time during phase 2 (tonic response phase) at 3.16 to 31.6 mg/kg, po dosed 30 mins before formalin injection and by formalin test; type: functional, organism-based
[3] = system: Mus musculus; experiment: Antinociceptive activity in ICR mouse assessed as reduction in licking time at 31.6 mg/kg, po dosed 30 mins before formalin injection and by formalin test; type: functional; parameters: scale not given: the % may be the effect or the level left

For `C=C[C@@]1(C)[C@H]2OC(=O)C(=C)[C@H]([C@@H]2OC(=O)/C(C)=C\C)[C@H](OC(=O)C(C)C)[C@@H]1C(=C)C(=O)O`, the Activity [1] was “Active” and the Activity [2] was “Active”.
Molecule `O=C(O)Cc1ccccc1Nc1c(Cl)cccc1Cl` [DICLOFENAC] has an Activity [3] of 40.9%.
